Results: patent publication US20210161913A1, “OXYGENATED CHOLESTEROL SULFATES FOR THERAPY OF DISORDERS CAUSED BY AT LEAST ONE OF ATTENUATED LEPTIN ACTIVITY AND A LIPID STORAGE DISORDER” (Virginia Commonwealth University, priority 2015, published 2021)

How the values were obtained:
[1] = tested on: leptin-deficient (obese fa/fa) Zucker rats; test: Liver histo-morphology (HE and Oil Red O staining), hepatic lipidosis in Zucker rats; type: in vivo, rat; design: key to Force Rank (Oil Red O): 1 = least severe; 5 = most severe; settings: for Force Rank (Oil Red O) / Severity of Hepatic Lipidosis: N = 5 males
Text: To examine the effect of 25HC3S on lipid accumulation in sera and in the liver in a leptin-deficient (obese fa/fa) animal model (Zucker rats), 11 week old Zucker rats (Charles River, Wilmington, Mass.) were randomly assigned into four groups. Obese fa/fa Zucker rats have a defective leptin receptor and serve as a general animal model for deficiencies in leptin activity, whether due to low leptin levels, congenital defects in the leptin receptor or acquired leptin resistance, since all result in inadequate or faulty leptin activity. Further, these animals develop unwanted lipid accumulation after several weeks of life due to a genetic mutation in the leptin receptor. All rats were housed under identical conditions with a 12-hour light/12-hour dark cycle and given free access to water and food. The rats (n=5 in each treatment) were gavaged orally with vehicle (10% cellulose) or 25HC3S (10 mg/kg, 30 mg/kg, and 100 mg/kg) once a day for 21 days and fasted overnight (14 hrs) before collection of samples. To compare with gavage administration, other rats (n=10-17 in each treatment) were intraperitoneally injected with vehicle solution (ethanol/PBS; vehicle) or 25HC3S (50 mg/kg) once every three days for 6 weeks and fasted overnight (14 hrs). Blood samples were collected before sacrifice. Serum triglyceride (TG), total cholesterol (CHOL), high density lipoprotein-cholesterol (HDL-C), alkaline phosphatase (ALK), alanine aminotransferase (ALT), and aspartate aminotransferase (AST) were measured using standard enzymatic techniques. Lipoprotein profiles in sera were analyzed by HPLC in the following descriptions. Three specimens from different regions of the liver of each rat were collected and fixed in 4% paraformaldehyde in 0.1 M phosphate buffer at room temperature overnight. The regions of the specimens were standardized for all rats. The paraffin-embedded tissue sections (4 μm) were stained with hematoxylin and eosin (HE). 3-3′-Diaminobenzidine (DAB) was used as the chromogen, and hematoxylin was used as the nuclear counterstain. Determination of total intracellular lipids: Oil Red O staining of intracellular neutral lipids: the liver slides were fixed with 3.7% formaldehyde in PBS for 30 min followed by two washes with phosphate-buffered saline (PBS). The cells were stained with 0.2% Oil Red O in 60% 2-propanol for 10 min and washed three times with PBS. The images were taken with the use of a microscope (Olympus, Tokyo, Japan) equipped with image recorder under 40× lenses. All slides of tissue were qualitatively examined by light microscopy by a board certified veterinary pathologist. The incidence and severity of the lesions were scored. Lesions were also assessed for duration and distribution.

[2] = tested on: leptin-deficient (obese fa/fa) Zucker rats; test: Quantification of hepatic lipids in Zucker rats; type: in vivo, rat; settings: 21 days
Text: (§1) To examine the effect of 25HC3S on lipid accumulation in sera and in the liver in a leptin-deficient (obese fa/fa) animal model (Zucker rats), 11 week old Zucker rats (Charles River, Wilmington, Mass.) were randomly assigned into four groups. Obese fa/fa Zucker rats have a defective leptin receptor and serve as a general animal model for deficiencies in leptin activity, whether due to low leptin levels, congenital defects in the leptin receptor or acquired leptin resistance, since all result in inadequate or faulty leptin activity. Further, these animals develop unwanted lipid accumulation after several weeks of life due to a genetic mutation in the leptin receptor. All rats were housed under identical conditions with a 12-hour light/12-hour dark cycle and given free access to water and food. The rats (n=5 in each treatment) were gavaged orally with vehicle (10% cellulose) or 25HC3S (10 mg/kg, 30 mg/kg, and 100 mg/kg) once a day for 21 days and fasted overnight (14 hrs) before collection of samples. To compare with gavage administration, other rats (n=10-17 in each treatment) were intraperitoneally injected with vehicle solution (ethanol/PBS; vehicle) or 25HC3S (50 mg/kg) once every three days for 6 weeks and fasted overnight (14 hrs). Blood samples were collected before sacrifice. Serum triglyceride (TG), total cholesterol (CHOL), high density lipoprotein-cholesterol (HDL-C), alkaline phosphatase (ALK), alanine aminotransferase (ALT), and aspartate aminotransferase (AST) were measured using standard enzymatic techniques. Lipoprotein profiles in sera were analyzed by HPLC in the following descriptions.
Liver tissues were homogenized, and the hepatic total lipids were extracted using a mixture of chloroform and methanol (2:1, v:v). After the extracts were filtered, 0.2 ml of each was evaporated to dryness and dissolved in 100 μl of isopropanol containing 10% Triton™ X-100 for cholesterol assay (Wako Chemicals USA, Richmond, Va.), 100 μl of NEFA solution (0.5 g of EDTA-Naz, 2 g of Triton™ X-100, 0.76 ml of 1N NaOH, and 0.5 g of sodium azide/1, pH 6.5) for the free fatty acid assay (Wako Chemicals USA, Richmond, Va.), or 100 μl of isopropanol only for the triglyceride assay (Fisher Scientific, Pittsburgh, Pa.). Each lipid concentration was normalized by liver weight.

[3] = tested on: THP-1 macrophages; settings: Ma et al., 2008, Ren et al., 2007, Xu et al., 2010; cited from earlier work
[4] = tested on: primary hepatocytes; settings: Ma et al., 2008, Ren et al., 2007, Xu et al., 2010; cited from earlier work
[5] = tested on: leptin-deficient (obese fa/fa) Zucker rats; test: Serum lipid levels in leptin-deficient (obese fa/fa) Zucker rats after 25HC3S administration; type: in vivo, rat
Text: as §1, with “descriptions. The lipoproteins, triglycerides and cholesterol in very low density lipoprotein (VLDL), low-density lipoprotein (LDL) and high-density lipoprotein (HDL) were measured by gel filtration using HPLC as previously described (Bai et al., 2012). Briefly, rat serum (100 μl) was eluted with a solvent of 154 mM NaCl with 0.1 mM EDTA (pH 8.0) at a flow rate of 0.2 ml/min via a Pharmacia Superose 6 HR 10/30 FPLC column, and the signal was read at a wavelength of 280 nm. Fractions were collected for 1.2 min each from 20 min up to 100 min. 180 μl of each fraction plus 20 μl of a 10× solution of Wako Total Cholesterol E Reagent (Wako Chemicals USA, Richmond, Va.) was incubated in a 96-well plate at 37° C. for 3 hrs in the dark to analyze cholesterol levels, and the absorbance was read at a wavelength of 595 nm. 2 μl of each fraction plus 200 μl of Infinity™ Triglycerides Reagent (Fisher Scientific, Pittsburgh, Pa.) was incubated in a 96-well plate at 37° C. for 5 minutes in dark to analyze triglyceride levels, and the absorbance was read at a wavelength of 500 nm. The lipoprotein profile was monitored as an internal control.” for “descriptions.”

[6] = gavage 10 mg/kg, normalized by liver weight
[7] = gavage administration once a day for 21 days, fasted overnight, vs vehicle
[8] = intraperitoneal administration, 50 mg/kg once every three days

With CC(CCCC(C)(C)O)C1CCC2C3CC=C4CC(OS(=O)(=O)O)CCC4(C)C3CCC12C (stereo not shown) [25HC3S, 5-cholesten, 3-, 25-diol, 3-sulfate] the “Force Rank (Oil Red O)” value ([1]; 10 mg/kg/day gavage) was 4, the “Severity of Hepatic Lipidosis” value ([1]; 10 mg/kg/day gavage) was “Mild to moderate” and the “Force Rank (Oil Red O)” value ([1]; 30 mg/kg/day gavage) was 3. The “Severity of Hepatic Lipidosis” value ([1]; 30 mg/kg/day gavage) was “Mild to moderate”, the “Force Rank (Oil Red O)” value ([1]; 50 mg/kg IP every 3 days) was 2 and the “Severity of Hepatic Lipidosis” value ([1]; 50 mg/kg IP every 3 days) was “Mild”. The “Force Rank (Oil Red O)” value ([1]; 100 mg/kg/day gavage) was 1, the “Severity of Hepatic Lipidosis” value ([1]; 100 mg/kg/day gavage) was “Mild” and the “lipid inclusions in hepatocytes (HE stained liver sections)” value ([1]; 10, 30 and 100 mg/kg PO (FIGS. 3B, C, D) vs control rats) was “significantly decreased”. The “liver free cholesterol concentration” value ([2]; administration of 25HC3S) was “not affected”, the “reduction of liver tissue free fatty acids” value [2, 6] was 26% and the “reduction of liver tissue total cholesterol” value [2, 6] was 25%. For the same molecule, the “reduction of liver tissue triglyceride” value [2, 6] was 43%, the lipid accumulation [3] was “reduce lipid accumulation” and the lipid accumulation [4] was “reduce lipid accumulation”. For the same molecule, the “decrease of plasma CHOL” value [5, 7] was 17%, the “decrease of plasma TG” value [5, 7] was 30% and the “change in HDL levels” value ([5]; gavage administration, 21 days) was “no significant change”. The “change in LDL levels” value ([5]; gavage administration, 21 days) was “no significant change”, the “serum HDL” value [5, 8] was “significantly decreased” and the serum total cholesterol [5, 8] was “significantly decreased”. The serum triglyceride [5, 8] was “significantly decreased”.
